The text below walks through data of ChEMBL document CHEMBL4715817, “Python Cathelicidin CATHPb1 Protects against Multidrug-Resistant Staphylococcal Infections by Antimicrobial-Immunomodulatory Duality” (J Med Chem, 2018).

In brackets after ≈: the same amount, converted by molar mass. Activity calls are given as the source filed them. The rule behind the calls is not given here. Peptide text beside a SMILES is read from it.

Assay [1] has as its system Escherichia coli. Put plainly: Antimicrobial activity against Escherichia coli ATCC 25922 incubated for 16 to 18 hrs by fluorescence microplate reader analysis. The settings on record: time 16-18 hrs. It is filed as functional.
In assay [2] the test system is Escherichia coli. Put plainly: Antimicrobial activity against Escherichia coli IS 08032813 incubated for 16 to 18 hrs by fluorescence microplate reader analysis. It is filed as functional. Conditions: time 16-18 hrs.
Another assay concerns Pseudomonas aeruginosa. As to the kind of experiment: Antimicrobial activity against Pseudomonas aeruginosa ATCC 27853 incubated for 16 to 18 hrs by fluorescence microplate reader analysis. The class given is functional. The settings on record: time 16-18 hrs.
In another assay the test system is Macrophage. As to the kind of experiment: Immunomodulatory activity in mouse peritoneal macrophage assessed as inhibition of LPS-induced IL-1beta level measured after 6 hrs by qRT-PCR analysis. The class given is functional, tissue-based. The settings on record: dose 5-20 µg/ml. (In general: Quantitative PCR measures a nucleic acid by following its amplification.)

Another assay deals with Mus musculus. As to the kind of experiment: Immunomodulatory activity in Kunming mouse infected with vancomycin-resistant Staphylococcus aureus assessed as decreased in TNF-alpha level in peritoneal lavage at 10 mg/kg, ip administered 24 hrs before infection by ELISA. It is filed as functional, organism-based.

For `CC[C@H](C)[C@H](NC(=O)[C@@H]1CCCN1C(=O)[C@@H](NC(=O)[C@@H](NC(=O)CNC(=O)CNC(=O)[C@@H](NC(=O)[C@H](Cc1ccccc1)NC(=O)[C@@H](NC(=O)[C@H](CCCCN)NC(=O)[C@@H](NC(=O)[C@H](CCCCN)NC(=O)[C@H](CCCCN)NC(=O)[C@H](Cc1ccccc1)NC(=O)[C@@H](NC(=O)[C@H](CCCCN)NC(=O)[C@H](CCCNC(=N)N)NC(=O)[C@H](Cc1ccccc1)NC(=O)CNC(=O)[C@H](CCCCN)NC(=O)[C@H](CCCCN)NC(=O)[C@@H](NC(=O)[C@H](CCCCN)NC(=O)[C@H](CCCNC(=N)N)NC(=O)[C@H](Cc1ccccc1)NC(=O)[C@H](Cc1ccccc1)NC(=O)[C@H](CCCCN)NC(=O)[C@H](CCCCN)NC(=O)[C@H](Cc1ccccc1)NC(=O)[C@H](CCCNC(=N)N)NC(=O)[C@@H](N)CCCCN)[C@@H](C)CC)[C@@H](C)CC)[C@@H](C)O)[C@@H](C)CC)[C@@H](C)CC)[C@@H](C)O)[C@@H](C)CC)C(=O)O` (H-KRFKKFFRKIKKGFRKIFKKTKIFIGGTIPI-OH), the MIC against Escherichia coli [1], against Escherichia coli [2] and in the assay on Pseudomonas aeruginosa was 1.17 µg/mL (≈ 0.308 µM) throughout. The inhibition result in the assay with Macrophage is “Dose-dependent effect”. The result in the assay on Mus musculus was Active.
